The values that follow come from ChEMBL document CHEMBL1275454, “Assessment of Aspergillus fumigatus burden in pulmonary tissue of guinea pigs by quantitative PCR, galactomannan enzyme immunoassay, and quantitative culture” (2008).

The subject of test [1] is Aspergillus fumigatus. In words: Antimicrobial activity against Aspergillus fumigatus AF293 infected in hartley guinea pig assessed as survival rate at 10 mg/kg, po BID for 8 days postinfection. Type of test: functional.
For test [2], the system named is Aspergillus fumigatus. Kind of test: Antimicrobial activity against Aspergillus fumigatus AF293 infected in hartley guinea pig assessed as time to death at 10 mg/kg, po BID for 8 days postinfection. The settings on record: AF293, in Cavia porcellus, 192 h. Type of test: functional.
Test [3] concerns Aspergillus fumigatus. Kind of test: Antimicrobial activity against Aspergillus fumigatus AF293 infected in hartley guinea pig assessed as decreased fungal burden in lung at 10 mg/kg, po BID for 8 days postinfection. Format: functional, organism-based. On the set-up: dose 10 mg/kg.
The test system of test [4] is Aspergillus fumigatus. In words: Antimicrobial activity against Aspergillus fumigatus AF293 infected in hartley guinea pig assessed as decreased fungal burden in lung at 10 mg/kg, po BID after 4 to 6 days postinfection. Format: functional, organism-based. On the set-up: dose 10 mg/kg.
Test [5] has as its system Aspergillus fumigatus. Kind of test: Antimicrobial activity against Aspergillus fumigatus AF293 infected in hartley guinea pig assessed as log reduction in […] fungal burden at 10 mg/kg, po BID after 4 to 7 days postinfection. Type of test: functional.

Active and inactive are the calls of the source. The rule behind the calls is not given here.

Take `C[C@@H](c1ncncc1F)[C@](O)(Cn1cncn1)c1ccc(F)cc1F` [VORICONAZOLE]: in test [1], the Survival came out at 9.13 days. Also, the survival at 10 mg/kg in test [2] turned out to be 62.5%. For the same compound, the outcome in test [3] and in test [4] was Active. In test [5], the FC is recorded as 2.98.
